Measurements: PubChem BioAssay AID248 (DTP/NCI, 2004)
Where “and” joins values, the source holds several entries; their conditions need not be identical. Identical values can stand only once. Inconclusive results and toxic doses are left out.

Tested on: L1210 leukemia ip in BDF1 mice, survival T/C
Assay: NCI In Vivo Anticancer Drug Screen. Data for tumor model L1210 Leukemia (intraperitoneal) in B6D2F1 (BDF1) mice
Details: higher = longer survival
Method in brief: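 Tumor cells were implanted, animals were treated, and survival was followed. The result divides the treated measurement by the vehicle-control measurement.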

[1] = endpoint: mean survival time, dose: 100.0 mg/kg/injection, schedule: Q04DX003 (ip), vehicle: Klucel (hydroxypropylcellulose) (HPC)
[2] = endpoint: mean survival time, dose: 200.0 mg/kg/injection, schedule: Q04DX003 (ip), vehicle: Klucel (hydroxypropylcellulose) (HPC)
[3] = endpoint: mean survival time, dose: 400.0 mg/kg/injection, schedule: Q04DX003 (ip), vehicle: Klucel (hydroxypropylcellulose) (HPC)

## N#[N+]c1cnc([O-])[nH]c1=O
endpoint: mean survival time, dose: 0.31 mg/kg/injection, schedule: Q#A X Z (ip), vehicle: methylcellulose (MC)
  T/C: 103 % of control
endpoint: mean survival time, dose: 0.6 mg/kg/injection, schedule: Q01DX Z (im), vehicle: saline
  T/C: 102 % of control
endpoint: mean survival time, dose: 0.6 mg/kg/injection, schedule: Q01DX Z (ip), vehicle: saline
  T/C: 104 % of control
endpoint: mean survival time, dose: 0.62 mg/kg/injection, schedule: Q#A X Z (ip), vehicle: methylcellulose (MC)
  T/C: 108 % of control
endpoint: mean survival time, dose: 1.0 mg/kg/injection, schedule: Q01DX009 (ip), vehicle: saline
  T/C: 119 % of control
endpoint: mean survival time, dose: 1.2 mg/kg/injection, schedule: Q01DX Z (ip), vehicle: saline
  T/C: 120 % of control
endpoint: mean survival time, dose: 1.75 mg/kg/injection, schedule: Q01DX Z (ip), vehicle: carboxymethylcellulose (CMC)
  T/C: 115 % of control
endpoint: mean survival time, dose: 2.0 mg/kg/injection, schedule: Q01DX009 (sc), vehicle: carboxymethylcellulose (CMC)
  T/C: 103 % of control
endpoint: mean survival time, dose: 2.5 mg/kg/injection, schedule: Q01DX006 (iv), vehicle: saline
  T/C: 110 % of control
endpoint: mean survival time, dose: 2.5 mg/kg/injection, schedule: Q01DX010 (ip), vehicle: saline
  T/C: 107 % of control
endpoint: mean survival time, dose: 2.5 mg/kg/injection, schedule: Q01DX Z (sc), vehicle: steriod suspending solution
  T/C: 112 % of control
endpoint: mean survival time, dose: 3.75 mg/kg/injection, schedule: Q03DX Z (ip), vehicle: methylcellulose (MC)
  T/C: 123 % of control
endpoint: mean survival time, dose: 4.0 mg/kg/injection, schedule: Q01DX001 (sc), vehicle: carboxymethylcellulose (CMC)
  T/C: 100 % of control
endpoint: mean survival time, dose: 4.0 mg/kg/injection, schedule: Q01DX009 (sc), vehicle: carboxymethylcellulose (CMC)
  T/C: 105 % of control
endpoint: mean survival time, dose: 4.0 mg/kg/injection, schedule: Q## X008 (ip), vehicle: carboxymethylcellulose (CMC)
  T/C: 120 % of control
endpoint: mean survival time, dose: 4.0 mg/kg/injection, schedule: Q## X016 (ip), vehicle: carboxymethylcellulose (CMC)
  T/C: 119 % of control
endpoint: mean survival time, dose: 4.0 mg/kg/injection, schedule: Q## X024 (ip), vehicle: carboxymethylcellulose (CMC)
  T/C: 118 % of control
endpoint: mean survival time, dose: 5.0 mg/kg/injection, schedule: Q01DX006 (iv), vehicle: saline
  T/C: 115 % of control
endpoint: mean survival time, dose: 5.0 mg/kg/injection, schedule: Q01DX Z (ip), vehicle: saline
  T/C: 113 % of control and 118 % of control
endpoint: mean survival time, dose: 5.0 mg/kg/injection, schedule: Q04DX003 (ip), vehicle: Klucel (hydroxypropylcellulose) (HPC)
  T/C: 124 % of control
endpoint: mean survival time, dose: 5.0 mg/kg/injection, schedule: Q04DX003 (ip), vehicle: saline
  T/C: 104 % of control and 123 % of control
endpoint: mean survival time, dose: 8.0 mg/kg/injection, schedule: Q01DX001 (sc), vehicle: carboxymethylcellulose (CMC)
  T/C: 103 % of control
endpoint: mean survival time, dose: 8.0 mg/kg/injection, schedule: Q01DX009 (ip), vehicle: carboxymethylcellulose (CMC)
  T/C: 165 % of control
endpoint: mean survival time, dose: 8.0 mg/kg/injection, schedule: Q01DX009 (ip), vehicle: saline
  T/C: 121 % of control
endpoint: mean survival time, dose: 8.0 mg/kg/injection, schedule: Q01DX009 (sc), vehicle: carboxymethylcellulose (CMC)
  T/C: 107 % of control
endpoint: mean survival time, dose: 8.0 mg/kg/injection, schedule: Q## X016 (ip), vehicle: carboxymethylcellulose (CMC)
  T/C: 120 % of control
endpoint: mean survival time, dose: 8.0 mg/kg/injection, schedule: Q## X024 (ip), vehicle: carboxymethylcellulose (CMC)
  T/C: 120 % of control
endpoint: mean survival time, dose: 8.75 mg/kg/injection, schedule: Q07DX Z (ip), vehicle: methylcellulose (MC)
  T/C: 112 % of control
endpoint: mean survival time, dose: 9.49 mg/kg/injection, schedule: Q01DX Z (oral), vehicle: carboxymethylcellulose (CMC)
  T/C: 98 % of control
endpoint: mean survival time, dose: 10.0 mg/kg/injection, schedule: Q01DX005 (ip), vehicle: Klucel (hydroxypropylcellulose) (HPC)
  T/C: 157 % of control
endpoint: mean survival time, dose: 10.0 mg/kg/injection, schedule: Q01DX006 (iv), vehicle: saline
  T/C: 106 % of control and 108 % of control
endpoint: mean survival time, dose: 10.0 mg/kg/injection, schedule: Q01DX010 (ip), vehicle: saline
  T/C: 155 % of control
endpoint: mean survival time, dose: 10.0 mg/kg/injection, schedule: Q01DX Z (im), vehicle: saline
  T/C: 118 % of control
endpoint: mean survival time, dose: 10.0 mg/kg/injection, schedule: Q01DX Z (oral), vehicle: saline
  T/C: 106 % of control
endpoint: mean survival time, dose: 10.0 mg/kg/injection, schedule: Q04DX003 (ip), vehicle: Klucel (hydroxypropylcellulose) (HPC)
  T/C: 124 % of control
endpoint: mean survival time, dose: 10.0 mg/kg/injection, schedule: Q04DX003 (ip), vehicle: saline
  T/C: 114 % of control
endpoint: mean survival time, dose: 14.2 mg/kg/injection, schedule: Q01DX Z (oral), vehicle: carboxymethylcellulose (CMC)
  T/C: 101 % of control
endpoint: mean survival time, dose: 15.0 mg/kg/injection, schedule: Q01DX001 (ip), vehicle: saline
  T/C: 122 % of control and 91 % of control
endpoint: mean survival time, dose: 15.0 mg/kg/injection, schedule: Q03DX Z (ip), vehicle: methylcellulose (MC)
  T/C: 152 % of control
endpoint: mean survival time, dose: 16.0 mg/kg/injection, schedule: Q01DX001 (sc), vehicle: carboxymethylcellulose (CMC)
  T/C: 101 % of control
endpoint: mean survival time, dose: 16.0 mg/kg/injection, schedule: Q01DX009 (sc), vehicle: carboxymethylcellulose (CMC)
  T/C: 124 % of control
endpoint: mean survival time, dose: 16.0 mg/kg/injection, schedule: Q## X024 (ip), vehicle: carboxymethylcellulose (CMC)
  T/C: 115 % of control
endpoint: mean survival time, dose: 17.5 mg/kg/injection, schedule: Q07DX Z (ip), vehicle: methylcellulose (MC)
  T/C: 124 % of control
endpoint: mean survival time, dose: 20.0 mg/kg/injection, schedule: Q01DX006 (iv), vehicle: saline
  T/C: 102 % of control and 120 % of control
endpoint: mean survival time, dose: 20.0 mg/kg/injection, schedule: Q01DX Z (oral), vehicle: saline
  T/C: 115 % of control
endpoint: mean survival time, dose: 20.0 mg/kg/injection, schedule: Q04DX003 (ip), vehicle: saline
  T/C: 116 % of control and 119 % of control
endpoint: mean survival time, dose: 21.3 mg/kg/injection, schedule: Q01DX Z (oral), vehicle: carboxymethylcellulose (CMC)
  T/C: 97 % of control
endpoint: mean survival time, dose: 29.0 mg/kg/injection, schedule: Q01DX001 (ip), vehicle: alkali diluted with saline
  T/C: 153 % of control
endpoint: mean survival time, dose: 32.0 mg/kg/injection, schedule: Q01DX Z (oral), vehicle: carboxymethylcellulose (CMC)
  T/C: 104 % of control
endpoint: mean survival time, dose: 32.0 mg/kg/injection, schedule: Q01DX Z (oral), vehicle: methylcellulose (MC)
  T/C: 95 % of control
endpoint: mean survival time, dose: 40.0 mg/kg/injection, schedule: Q01DX006 (iv), vehicle: saline
  T/C: 113 % of control
endpoint: mean survival time, dose: 40.0 mg/kg/injection, schedule: Q01DX009 (oral), vehicle: carboxymethylcellulose (CMC)
  T/C: 104 % of control
endpoint: mean survival time, dose: 40.0 mg/kg/injection, schedule: Q01DX Z (oral), vehicle: saline
  T/C: 107 % of control and 116 % of control
endpoint: mean survival time, dose: 80.0 mg/kg/injection, schedule: Q01DX009 (oral), vehicle: carboxymethylcellulose (CMC)
  T/C: 109 % of control
endpoint: mean survival time, dose: 80.0 mg/kg/injection, schedule: Q01DX Z (oral), vehicle: saline
  T/C: 106 % of control
endpoint: mean survival time, dose: 160.0 mg/kg/injection, schedule: Q01DX001 (oral), vehicle: carboxymethylcellulose (CMC)
  T/C: 104 % of control
endpoint: mean survival time, dose: 240.0 mg/kg/injection, schedule: Q01DX001 (oral), vehicle: carboxymethylcellulose (CMC)
  T/C: 102 % of control
endpoint: median survival time, dose: 5.0 mg/kg/injection, schedule: Q01DX009 (ip), vehicle: saline
  T/C: 164 % of control
endpoint: median survival time, dose: 10.0 mg/kg/injection, schedule: Q01DX009 (ip), vehicle: saline
  T/C: 172 % of control and 200 % of control

## Cc1cc(-c2ccccc2)c2c(C#N)cn(-c3cccc(Cl)c3)c2n1
endpoint: mean survival time, dose: 100.0 mg/kg/injection, schedule: Q01DX001 (ip), vehicle: saline with Tween-80
  T/C: 92 % of control
endpoint: mean survival time, dose: 100.0 mg/kg/injection, schedule: Q01DX001 (ip), vehicle: saline
  T/C: 87 % of control
endpoint: mean survival time, dose: 200.0 mg/kg/injection, schedule: Q01DX001 (ip), vehicle: saline with Tween-80
  T/C: 106 % of control
endpoint: mean survival time, dose: 400.0 mg/kg/injection, schedule: Q01DX001 (ip), vehicle: saline with Tween-80
  T/C: 92 % of control
endpoint: mean survival time, dose: 400.0 mg/kg/injection, schedule: Q01DX001 (ip), vehicle: saline
  T/C: 102 % of control

## O=C1C(c2ccccc2)=CC(c2ccccc2)=C1c1ccccc1
endpoint: mean survival time, dose: 50.0 mg/kg/injection, schedule: Q01DX001 (ip), vehicle: carboxymethylcellulose (CMC)
  T/C: 91 % of control
endpoint: mean survival time, dose: 100.0 mg/kg/injection, schedule: Q01DX001 (ip), vehicle: carboxymethylcellulose (CMC)
  T/C: 91 % of control
endpoint: mean survival time, dose: 200.0 mg/kg/injection, schedule: Q01DX001 (ip), vehicle: carboxymethylcellulose (CMC)
  T/C: 94 % of control
endpoint: mean survival time, dose: 400.0 mg/kg/injection, schedule: Q01DX001 (ip), vehicle: carboxymethylcellulose (CMC)
  T/C: 94 % of control

## N#C[S-].N#C[S-].[Au+3].[Au+3].[CH3-].[CH3-].[CH3-].[CH3-]
endpoint: mean survival time, dose: 50.0 mg/kg/injection, schedule: Q01DX009 (ip), vehicle: saline with Tween-80
  T/C: 96 % of control
endpoint: mean survival time, dose: 100.0 mg/kg/injection, schedule: Q01DX009 (ip), vehicle: saline with Tween-80
  T/C: 109 % of control
endpoint: mean survival time, dose: 200.0 mg/kg/injection, schedule: Q01DX009 (ip), vehicle: saline with Tween-80
  T/C: 105 % of control

## O=C(c1ccc(Br)cc1)C1C(c2ccccc2)N1C1CCCCC1 (stereo not given)
[1]
  T/C: 98 % of control
[2]
  T/C: 96 % of control
[3]
  T/C: 93 % of control

## Cc1c(C)c2cc3ccc(Cl)cc3nc2c2ccccc12
[1]
  T/C: 103 % of control
[2]
  T/C: 105 % of control
[3]
  T/C: 110 % of control

## CCC[N+]12CC=C3COC(=O)C(C)(O)C(C)(O)C(C)C(=O)OC(CC1)C32 (stereo not given)
endpoint: mean survival time, dose: 50.0 mg/kg/injection, schedule: Q01DX009 (ip), vehicle: saline
  T/C: 92 % of control
endpoint: mean survival time, dose: 100.0 mg/kg/injection, schedule: Q01DX009 (ip), vehicle: saline
  T/C: 95 % of control
endpoint: mean survival time, dose: 200.0 mg/kg/injection, schedule: Q01DX009 (ip), vehicle: saline
  T/C: 95 % of control
